Series [1] is described as follows: DPPH radical scavenging activity. Format: biochemical. To be noted: Conc. ± SD; standard ascorbic acid; read-out: IC50 inhibitory concentration, DPPH radical. As for the experimental part:
Compounds of SC series were evaluated for their in vitro free radical scavenging activities by 2,2-diphenyl-1-picrylhydrazyl (DPPH) assay method (Blois, [1958]; Shishoo et al., [1999]; Chhajed et al., [2007]). To determine the free radical scavenging activity, a method based on the reduction of a methanolic solution of the coloured DPPH radical was used. To a set of test tubes containing methanol (3 mL), DPPH reagent (2 mg/mL) (50 μL) was added. The initial absorbance was measured. To these test tubes, methanolic solution of different test solutions (1 mg/mL) were added (10–50 μL). Ascorbic acid (0.5 mg/mL) was also added in the concentration of 10, 20, 30, 40, 50 and 100 μL. After 20 min, absorbance was recorded at 516 nm. The experiment was performed in triplicate. The percentage reduction in absorbance was calculated from the initial and final absorbance of each solution (Dhar and Taploo, [1982]).
In general terms: Loss of DPPH colour is used to gauge radical scavenging.

A short description of series [2]: Superoxide anion radical scavenging (NBT/NADH/PMS). Format: biochemical. To be noted: Conc. ± SD; standard catechin; read-out: IC50 inhibitory concentration, Superoxide anion. As for the experimental part: Measurement of superoxide anion scavenging activity of the synthesized compound was taken based on the method described by Nishimiki et al. ([1972]) and slightly modified. […] The reaction mixture was incubated at 25 °C for 5 min, and the absorbance at 560 nm was measured against blank samples. Catechin was used as reference compound. All the experiments were performed in triplicate, and the results were averaged. The percentage of inhibition was determined by comparing the results of control and test samples. The IC50 (nM/mL) value are depicted in Table 1.

Series [3] in a line: Total antioxidant activity (ABTS radical cation scavenging). Format: biochemical. The conditions noted are these: Conc. ± SD; three independent experiments in duplicate; standard trolox; read-out: IC50 inhibitory concentration, ABTS^+ radical. As for the experimental part:
The ability of the test sample to scavenge 2,2′-azinobis-(3-ethylbenzothiazoline-6-sulphonic acid) (ABTS^·+) radical cation was compared with 6-hydroxy-2,5,7,8-tetramethylchroman-2-carboxylic acid (trolox) standard (Chang et al., [2007]; Erel, [2004]; Re et al., [1999]). The ABTS^·+ radical cation was pregenerated by mixing ABTS stock solution (7 mM) with potassium persulphate (2.45 mM) (final concentration) and incubating for 12–16 h in the dark at room temperature until the reaction was complete and the absorbance was stable. The absorbance of the ABTS^·+ solution was equilibrated to 0.70 (±0.02) by diluting with water at room temperature, then 1 mL of solution was mixed with 10 μL of the test sample (0.05–10 mg/mL), and the absorbance was measured at 734 nm after 6 min. All experiments were repeated three times. The percentage inhibition of absorbance was calculated and plotted as a function of the concentration of standard and sample to determine the trolox equivalent antioxidant concentration (TEAC). To calculate the TEAC, the gradient of the plot for the sample was divided by the gradient of the plot for trolox. The IC50 inhibitory concentration (nM/mL) values of tested compounds are depicted in Table 1. The ABTS^·+ radical scavenging activity of the samples was expressed as S%=[(Acontrol-Asample)/Acontrol]×100 where A control is the absorbance of the blank control (ABTS^·+ solution without test sample), and A sample is the absorbance of the test sample.

A short description of series [4]: Nitric oxide radical scavenging (sodium nitroprusside, Griess reaction). In kind it is biochemical. To be noted: Conc. ± SD; standard curcumin; read-out: IC50 inhibitory concentration, Nitric oxide radical. As for the experimental part: Nitric oxide generated from sodium nitroprusside in aqueous solution at physiological pH interacts with oxygen to produce nitrite ions, which were measured by the Griess reaction (Marcocci et al., [1994]; Green et al., [1982]). Scavenger of nitric oxide competes with oxygen leading to reduced production of nitric oxide (Mondal et al., [2006]). The reaction mixture (3 mL) containing sodium nitroprusside (10 mM) in phosphate-buffered saline (PBS) and the compounds in different concentrations (10, 20, 30, 40, 50 and 100 μg) were incubated at 25 °C for 150 min. At every 30-min interval, the incubated sample (0.5 mL) was removed and Griess reagent (1 % sulphanilamide, 0.1 % naphthylethylene diamine dihydrochloride in 2 % H3PO4) (0.5 mL) was added. The absorbance of the chromophore formed was measured at 546 nm. All the analyses were performed in triplicate, and the results were averaged. The percentage inhibition of nitric oxide generated was measured by comparing the absorbance values of control and test.
In general terms: Nitrite, measured by Griess reagent, commonly stands in for NO production.

Series [5] can be described thus: In vitro cytotoxicity by MTT assay, NCI-H226. Format: cell-based. To be noted: human, NCI-H226 lung cancer cells, 0.015 μM, read-out: % Cytotoxicity (100 − % cell survival) of NCI-H226 cell line. Put shortly:
(§1)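 Monolayers seeded at […] (about 10,000 per well) were treated after 24 h with the synthesized compounds and incubated three days. Viability was taken from MTT reduction, with formazan measured at 490 nm.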
(Tetrazolium dyes change colour on reduction, which living cells bring about.)

Series [6] deals with NCI-H226 (lung cancer cell line). In words: In vitro cytotoxicity by MTT assay, NCI-H226. In kind it is cell-based. To be noted: Homo sapiens, 72 h, read-out: % Cytotoxicity (100 − % cell survival) of NCI-H226 cell line. In short, it runs like this:
as §1

Usually melting point stands for the temperature, or range, at which the solid turns liquid.

Molecule `O=C(NS(=O)(=O)c1nnc(N=Cc2ccc(Cl)cc2)s1)c1ccccc1` [Compound 9b, N-({5-[(4-Chlorobenzylidene)amino]-1,3,4-thiadiazol-2-yl}sulfonyl)benzamide] gave a melting point of 212 to 214 °C. Also, in series [1], the IC50 turned out to be 88.2 ± 11.1 µM. In series [2], the IC50 turned out to be 76.3 ± 11.8 µM. In addition, the IC50 in series [3] came to 93.3 ± 10.7 µM. Further, the IC50 in series [4] came out at 52.6 ± 16.7 µM. The cytotoxicity at 72 h, 0.015 µM in series [5] worked out at 29.5%. Besides, in series [6] (NCI-H226, 0.005 μM), the cytotoxicity at 0.005 µM was 27.8%. Moreover, in series [6] (NCI-H226, 0.045 μM), the cytotoxicity at 0.045 µM stood at 35.4%. Further, the cytotoxicity at 0.13 µM in series [6] (NCI-H226, 0.13 μM) stood at 35.7%. For the same molecule, the cytotoxicity at 0.41 µM in series [6] (NCI-H226, 0.41 μM) is 36.1%. Besides, in series [6] (NCI-H226, 1.23 μM), the cytotoxicity at 1.23 µM turned out to be 36.5%. In series [6] (NCI-H226, 3.7 μM), the cytotoxicity at 3.7 µM is 36.6%. Moreover, in series [6] (NCI-H226, 11.11 μM), the cytotoxicity at 11.11 µM is 37%. In addition, in series [6] (NCI-H226, 33.33 μM), the cytotoxicity at 33.33 µM stood at 37.7%. Further, the cytotoxicity at 100 µM in series [6] (NCI-H226, 100 μM) is 38%.
